Data reported in patent US11690895B2, “Compositions and methods of interferon alpha binding proteins” (priority 2017, dated 2023).

What was measured:
rat neurons = assay: PSD-95 puncta on rat neurons exposed to IFNα; type: cell-based; details: IFNα 300 IU/mL, compared to control neurons
Experimental: (§1) Rat neurons were either obtained from Brain Bits (Cat #SDECX; embryonic day 18) and cultured in NBACTIV1 media (Cat #nbactivl) until day 14, when they are relatively “mature”, or cortical neurons were prepared from embryonic day 18 Sprague Dawley fetuses. Two different densities of neurons were utilized, based on test procedures. For PSD-95 puncta, low density cultures (10,000 neurons/cm') were placed on 12 mm poly D Lysine (Sigma cat #2636) coated coverslips, incubated in wells with glia (astrocytes) or removed for IFNα (300 IU/ml) exposure. High density cultures (500,000 neurons/60 mm dish) were used for protein extraction. These cultures contained approximately 2-3% glia (GFAP immunostaining).
Rat neurons were seeded on poly-L-lysine coated coverslips and co-cultured with astroglia. On day 14, half of the conditioned medium from co-culture was transferred to new 6 well plates. […] PSD-95 puncta were identified and counted with SYNPANAL software. […] PSD-95 puncta along the region were counted and divided by the length to obtain PSD-95 puncta/unit. […] For each treatment, the average puncta/unit was determined by averaging the puncta/unit for each neuron (at least 10/treatment in each replicate plate). For each treatment within the experiment, the average puncta/unit is determined by averaging the puncta/unit for each replicate of that treatment (thus, n=3/treatment) for 20 min and 2 hours. […]

rat neuronal cultures = details: mediated through IFNAR and NMDAR, earlier studies; cited from earlier work
Arf1 = Arf1 expression in rat neuronal cultures (proteomics, Western blot); type: cell-based; details: IFNα 300 IU/ml
Experimental: as §1
Protein samples (5 to 10 micrograms) were resolved in Criterion precast gels (Bio-Rad) and transferred to a PVDF membrane using a semidry system (Bio-Rad). All blocking antibody and washing steps were performed at room temperature (RT) on a rocker. Membranes were incubated for one hour in 3% non-fat dry milk in TBST (25 mM Tris, 140 mM NaCl, 3 mM KCl, and 0.05% Tween-20), then 4 hr in anti-Arfl antibody (cat #ARP75924_P050, Aviva; 1:1000) diluted in 1% non-fat dry milk in TBST. Membranes were briefly washed in TBST followed by 3 separate 5 minute incubations in TBST. Membranes were incubated for one hour with goat anti-rabbit IgG HRP (cat #NEF812001EA, Perkin Elmer 1:5,000) diluted in 1% non-fat dry milk in TBST. Final washing included a quick rinse with ddH2O, 2 min wash in TBST, 4 min wash in TBST, and 5 min wash in 1× TBS. Immunoreactive bands were detected with chemiluminescence using ECL Prime substrate (cat #RPN2236, GE Healthcare Life Sciences) on a Chemidoc imager (Bio-Rad), and quantified with ImageJ (NIH). Arf1 signal was normalized to GAPDH Western blot (WB) intensity (cat #MAB374, Millipore;1:20,000).
For proteomic analysis of total protein, rat cortical neurons were cultured in 60 mm dishes in high density (described above). After 14 days, cells were treated with 300 IU/mL IFNα for 20 min, 2 hr, 8 hr, 24 hr, or 48 hr. For comparison of the proteome, untreated cells were given sterile, distilled water (vehicle) equal to the volume of IFNα. After incubations, cells were washed once in RT phosphate buffered saline (PBS) and scraped into 500 microliters of PBS. Cell slurries were snap frozen in a dry ice ethanol bath and processed by the Emory University Proteomics Core.
To select proteins for further analysis, GO-Elite software was used. […] These lists of accession numbers were derived by identifying proteins for which the total peptide spectral match (PSM) was seven-fold (or more) lower in the IFNα treated sample than in the control sample. […] Thus, Arfl was selected for WB analysis.

AMPA receptor (AMPAR) = assay: AMPA receptor (GLuR2) immunofluorescent staining of rat neurons; type: cell-based; details: IFNα exposure for 2 hours
Experimental: Rat neurons were fixed with 4% paraformaldehyde in PBS for 20 min at RT. They were incubated with anti-GLuR2 (EMD Millipore, Burlington Mass.; 1:100), a subunit of the AMPA receptor (AMPAR), for 1 hour at RTO in the dark. After washes, this was followed by incubation with DAPI […] (Images were subjected ImageJ software for densitometric analysis).

IFNα
PSD-95 puncta (rat neurons; 20 minutes): significantly decreased
PSD-95 puncta (rat neurons; 2 hours): significantly decreased
effect on dendrites of rat neuronal cultures (rat neuronal cultures): dendritic simplification
Arf1 level (Western blot) (Arf1; 2 hours): decreases
Arf1 level (Western blot) (Arf1; 4 hours): decreases
Arf1 level (Western blot) (Arf1; 8 hours (data not shown)): decreased
Arf1 level (Western blot) (Arf1; 24 hours (data not shown)): not consistently
neuronal surface expression of AMPARs (AMPA receptor (AMPAR)): significantly decreased
